As a reminder, the IC50 is the concentration that inhibits the measured activity by half.

For assay [1], the system named is isolated perfused mesenteric vessels of rats. Briefly: inhibition of potassium-induced vasoconstriction in isolated perfused mesenteric vessels of rats. Format: cell-based. The conditions noted are these: Rattus norvegicus, in vitro. The text has this: (§1) The compounds of the formula I and salts thereof have valuable pharmacological properties, especially in the cardiovascular field. […] 177, 21-30, (1965)] by way of the inhibition of potassium- and noradrenalininduced vasoconstriction, for example using 2,6-dimethyl-4-(3-nitrophenyl)-1,4-dihydropyridine-3,5-dicarboxylic acid 3-methyl ester 5-[2-[N-(4-(4-fluorophenyl)-4-oxo-n-butyl)-N-methylamino]ethyl ester] at a concentration of approx. 10^-8 mol/liter (IC50) for the inhibition of potassium-induced vasoconstriction, and at a concentration of approx. 3×10^-10 mol/liter (IC50) for the inhibition of noradrenalin-induced vasoconstriction. […] Pharmacol. 21, 301-304 (1982)], for example using 2,6-dimethyl-4-(3-nitrophenyl)-1,4-dihydropyridine-3,5-dicarboxylic acid 3-methyl ester 5-[2-[N-(4-(4-fluorophenyl)-4-oxo-n-butyl)-N-methylamino]ethyl ester] at a concentration of approx. 10^-8 mol/liter (IC50).

For assay [2] the test system is unchanged. Briefly: inhibition of noradrenalin-induced vasoconstriction in isolated perfused mesenteric vessels of rats. Format: cell-based. Conditions: Rattus norvegicus, in vitro.
Excerpt: as §1

Another assay addresses T1, serotonin2 -receptors (Rattus norvegicus, UniProt P14842).
T1 construct: membranes of rats' brains; from tissue; host or cells: rat brain membranes
The experiment in a line: displacement of 3H-ketanserin from its bonding sites in membranes of rats' brains. Type of assay: binding. Conditions: read-out: IC50, displacement of 3H-ketanserin from serotonin2-receptor bonding sites.
Excerpt: as §1

The next assay deals with renally hypertonic rats. Briefly: reduction in blood pressure in renally hypertonic rats. The conditions noted are these: 2 hours after p.o. administration of 15 mg/kg. Type of assay: in vivo. The protocol:
For example, 2 hours after p.o. administration of 15 mg/kg of 2,6-dimethyl-4-(3-nitrophenyl)-1,4-dihydropyridine-3,5dicarboxylic acid 3-methyl ester 5-[2-[N-(4-(4-fluorophenyl)-4-oxo-n-butyl)-N-methylamino]ethyl ester] to renally hypertonic rats, a reduction in blood pressure of approx. 45 mm Hg may be observed.

T1 sequence (P14842 whole entry): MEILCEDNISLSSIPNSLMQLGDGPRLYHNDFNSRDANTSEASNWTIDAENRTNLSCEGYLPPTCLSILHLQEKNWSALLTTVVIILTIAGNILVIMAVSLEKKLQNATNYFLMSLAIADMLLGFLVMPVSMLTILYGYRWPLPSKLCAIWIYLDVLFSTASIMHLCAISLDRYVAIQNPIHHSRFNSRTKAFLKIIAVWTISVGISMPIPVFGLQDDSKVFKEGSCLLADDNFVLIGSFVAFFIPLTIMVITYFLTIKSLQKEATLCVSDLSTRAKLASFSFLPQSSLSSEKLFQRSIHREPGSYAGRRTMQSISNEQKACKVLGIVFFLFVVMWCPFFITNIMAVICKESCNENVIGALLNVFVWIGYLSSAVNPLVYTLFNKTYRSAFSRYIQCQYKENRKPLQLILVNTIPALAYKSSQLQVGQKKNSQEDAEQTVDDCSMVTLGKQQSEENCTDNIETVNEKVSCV

Take `COC(=O)C1=C(C)NC(C)=C(C(=O)OCCN(C)CCCC(=O)c2ccc(F)cc2)C1c1cccc([N+](=O)[O-])c1` (stereo not shown) [2,6-dimethyl-4-(3-nitrophenyl)-1,4-dihydropyridine-3,5-dicarboxylic acid 3-methyl ester 5-[2-[N-(4-(4-fluorophenyl)-4-oxo-n-butyl)-N-methylamino]ethyl ester]]: the values for the IC50 (in assay [1]; in assay [2]; at serotonin2 -receptors) were roughly 10 nM, roughly 0.3 nM and roughly 10 nM, respectively. In the assay on renally hypertonic rats, the “reduction in blood pressure” value is “approx. 45 mm Hg”.

The record behind these values is patent US4808603A, “3,5-diacyl-2,6-dialkyl-4-aryl-1,4-dihydropyridines, their use, and pharmaceutical compositions thereof” (Ciba-Geigy Corporation, priority 1985, dated 1989).
